Patent publication US20230257372A1 (CHONG KUN DANG PHARMACEUTICAL CORP., priority 2020, published 2023)
Read-outs that look alike come from different tables or passages of the source.

Columns and labels:
human recombinant HDAC1 = biological target: T1, human recombinant HDAC1 (Homo sapiens, UniProt Q13547); assay: HDAC1 enzyme activity inhibition (HDAC Fluorimetric Drug Discovery Kit); format: biochemical; conditions: read-out: HDAC1
T1 construct: purchased Enzo Life Science, Inc. BML-SE456
Method in brief: (§1)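 Fluorimetric deacetylase read-out: after 30 min with Developer II following a 60 min, 30° C reaction of recombinant enzyme ([…]) with 10 μM substrate, across five-fold serial compound dilutions.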

human recombinant HDAC6 = biological target: T2, human recombinant HDAC6 (Homo sapiens, UniProt Q9UBN7); assay: HDAC6 enzyme activity inhibition (HDAC Fluorimetric Drug Discovery Kit); format: biochemical
T2 construct: purchased Calbiochem Inc. 382180
T2 sequence (Q9UBN7 1-1215): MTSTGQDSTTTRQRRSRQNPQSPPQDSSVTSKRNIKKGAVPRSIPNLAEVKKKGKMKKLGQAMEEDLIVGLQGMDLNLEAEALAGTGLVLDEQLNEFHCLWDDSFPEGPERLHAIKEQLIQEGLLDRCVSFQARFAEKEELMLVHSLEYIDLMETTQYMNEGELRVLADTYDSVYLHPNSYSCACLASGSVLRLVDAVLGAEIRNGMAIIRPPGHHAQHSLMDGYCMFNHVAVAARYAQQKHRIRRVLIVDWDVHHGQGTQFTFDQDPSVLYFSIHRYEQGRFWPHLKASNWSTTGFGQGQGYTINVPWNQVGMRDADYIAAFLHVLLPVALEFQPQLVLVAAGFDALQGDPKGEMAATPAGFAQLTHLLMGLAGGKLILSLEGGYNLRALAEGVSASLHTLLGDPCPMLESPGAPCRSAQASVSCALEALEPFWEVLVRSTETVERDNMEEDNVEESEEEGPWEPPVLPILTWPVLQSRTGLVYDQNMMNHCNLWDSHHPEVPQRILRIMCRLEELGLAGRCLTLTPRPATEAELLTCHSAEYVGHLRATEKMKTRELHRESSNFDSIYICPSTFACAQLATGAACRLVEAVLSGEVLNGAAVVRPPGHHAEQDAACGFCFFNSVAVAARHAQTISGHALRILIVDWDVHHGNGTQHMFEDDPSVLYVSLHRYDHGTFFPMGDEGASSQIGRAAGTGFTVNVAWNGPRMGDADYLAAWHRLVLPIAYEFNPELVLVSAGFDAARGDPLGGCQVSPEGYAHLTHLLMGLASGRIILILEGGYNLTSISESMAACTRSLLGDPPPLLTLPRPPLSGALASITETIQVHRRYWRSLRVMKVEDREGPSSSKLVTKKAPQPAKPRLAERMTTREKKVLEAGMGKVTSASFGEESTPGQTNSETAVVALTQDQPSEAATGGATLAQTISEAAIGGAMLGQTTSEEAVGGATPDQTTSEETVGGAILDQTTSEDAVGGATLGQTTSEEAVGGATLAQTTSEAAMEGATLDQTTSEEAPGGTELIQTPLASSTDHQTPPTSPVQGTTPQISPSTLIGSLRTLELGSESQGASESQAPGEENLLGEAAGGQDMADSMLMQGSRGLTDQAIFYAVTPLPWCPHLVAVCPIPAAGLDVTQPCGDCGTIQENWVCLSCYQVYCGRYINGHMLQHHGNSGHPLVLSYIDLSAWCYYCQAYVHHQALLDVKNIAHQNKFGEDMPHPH
Method in brief: as §1

[1] = human recombinant HDAC1, Fluor de Lys substrate, 30° C. 60 minutes
[2] = human recombinant HDAC6, same protocol as HDAC1
[3] = human recombinant HDAC1, IC50 calculated with GraphPad Prism
[4] = human recombinant HDAC6, IC50 calculated with GraphPad Prism

T1 sequence (Q13547 whole entry): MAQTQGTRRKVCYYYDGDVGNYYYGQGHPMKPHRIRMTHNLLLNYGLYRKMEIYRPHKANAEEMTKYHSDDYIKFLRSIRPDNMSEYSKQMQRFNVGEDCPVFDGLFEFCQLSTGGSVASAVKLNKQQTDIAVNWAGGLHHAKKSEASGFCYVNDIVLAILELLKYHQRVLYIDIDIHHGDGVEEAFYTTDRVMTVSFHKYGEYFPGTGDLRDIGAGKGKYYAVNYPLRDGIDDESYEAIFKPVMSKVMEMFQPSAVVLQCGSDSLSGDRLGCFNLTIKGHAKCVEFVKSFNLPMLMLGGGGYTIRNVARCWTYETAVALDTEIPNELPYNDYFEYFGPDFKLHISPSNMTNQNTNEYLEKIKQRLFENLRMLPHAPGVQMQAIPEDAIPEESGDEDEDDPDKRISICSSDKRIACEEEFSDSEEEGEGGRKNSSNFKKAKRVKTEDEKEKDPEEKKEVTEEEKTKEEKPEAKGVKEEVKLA

| Compound | IC50 (human recombinant HDAC1; [1]) | HDAC6 selectivity (fold) (human recombinant HDAC6; HDAC6 over HDAC1) | IC50 (human recombinant HDAC6; [2]) | IC50 (human recombinant HDAC1; [3]) | HDAC6 selectivity (fold) (human recombinant HDAC6; HDAC1 IC50 / HDAC6 IC50) | IC50 (human recombinant HDAC6; [4]) |
| --- | --- | --- | --- | --- | --- | --- |
| FC(F)c1nnc(-c2ccc(Cn3cc(-c4cnc5[nH]ccc5c4)nn3)cc2)o1 [Compound 4525, 2-(4-((4-(1H-pyrrolo[2,3-b]pyridin-5-yl)-1H-1,2,3-triazol-1-yl)methyl)phenyl)-5-(difluoromethyl)-1,3,4-oxadiazole] | > 50000 nM | 5681 fold | 8.8 nM | – | – | – |
| COC(=O)N1CC(c2cn(Cc3ccc(-c4nnc(C(F)F)o4)cn3)nn2)C1 [Compound 3959, Methyl 3-(1-((5-(5-(difluoromethyl)-1,3,4-oxadiazol-2-yl)pyridin-2-yl)methyl)-1H-1,2,3-triazol-4-yl)azetidin-1-carboxylate] | – | – | – | > 50000 nM | 209 fold | 239 nM |
| CN1CCc2ccc(-c3cn(Cc4ncc(-c5nnc(C(F)F)o5)cc4F)nn3)cc2C1 [Compound 19002, 2-(difluoromethyl)-5-(5-fluoro-6-((4-(2-methyl-1,2,3,4-tetrahydroisoquinolin-7-yl)-1H-1,2,3-triazol-1-yl)methyl)pyridin-3-yl)-1,3,4-oxadiazole] | > 50000 nM | 587 fold | 85.1 nM | – | – | – |
| CCN1[C@H](C)CN(c2cccc(-c3cn(Cc4ccc(-c5nnc(C(F)F)o5)cc4)nn3)c2)C[C@@H]1C [Compound 4442] | – | – | – | > 50000 nM | 1256 fold | 39.8 nM |
| FC(F)c1nnc(-c2ccc(Cn3cc(-c4cccc(CN5CC6(COC6)C5)c4)nn3)nc2)o1 [Compound 3965, 6-(3-(1-((5-(5-(difluoromethyl)-1,3,4-oxadiazol-2-yl)pyridin-2-yl)methyl)-1H-1,2,3-triazol-4-yl)benzyl)-2-oxa-6-azaspiro[3.3]heptane] | – | – | – | > 50000 nM | 1392 fold | 35.9 nM |
| CN1CC(NC(=O)c2cccc(-c3cn(Cc4ccc(-c5nnc(C(F)F)o5)cn4)nn3)c2)C1 [Compound 4480, 3-(1-((5-(5-(difluoromethyl)-1,3,4-oxadiazol-2-yl)pyridin-2-yl)methyl)-1H-1,2,3-triazol-4-yl)-N-(1-methylazetidin-3-yl)benzamide] | – | – | – | > 50000 nM | 1388 fold | 36 nM |
| CN1C[C@@H]2C[C@H]1CN2c1cccc(-c2cn(Cc3ccc(-c4nnc(C(F)F)o4)cc3)nn2)c1 [Compound 4320, 2-(difluoromethyl)-5-(4-((4-(3-((1S,4S)-5-methyl-2,5-diazabicyclo[2.2.1]heptan-2-yl)phenyl)-1H-1,2,3-triazol-1-yl)methyl)phenyl)-1,3,4-oxadiazole] | – | – | – | > 50000 nM | 719 fold | 69.5 nM |
| FC(F)c1nnc(-c2ccc(Cn3cc(-c4ccc5sccc5c4)nn3)nc2)o1 [Compound 4074, 2-(6-((4-(benzo[b]thiophen-5-yl)-1H-1,2,3-triazol-1-yl)methyl)pyridin-3-yl)-5-(difluoromethyl)-1,3,4-oxadiazole] | – | – | – | > 50000 nM | 602 fold | 83 nM |
| Cn1c(Cc2ccc(-c3nnc(C(F)F)o3)cc2)nnc1-c1ccccc1 [Compound 3981, 2-(difluoromethyl)-5-(4-((4-methyl-5-phenyl-4H-1,2,4-triazol-3-yl)methyl)phenyl)-1,3,4-oxadiazole] | – | – | – | > 50000 nM | 41 fold | 1200 nM |
| CC(C)N1CCN(C(=O)c2cccc(-c3cn(Cc4ccc(-c5nnc(C(F)F)o5)cn4)nn3)c2)CC1 [Compound 4448, (3-(1-((5-(5-(difluoromethyl)-1,3,4-oxadiazol-2-yl)pyridin-2-yl)methyl)-1H-1,2,3-triazol-4-yl)phenyl)(4-isopropylpiperazin-1-yl)methanone] | – | – | – | > 50000 nM | 2873 fold | 17.4 nM |
| FC(F)c1nnc(-c2ccc(Cn3cnc(-c4ccccc4)c3)nc2)o1 [Compound 3950, 2-(difluoromethyl)-5-(6-((4-phenyl-1H-imidazol-1-yl)methyl)pyridin-3-yl)-1,3,4-oxadiazole] | – | – | – | > 50000 nM | 954 fold | 52.4 nM |

Further lines, results first:

| IC50 (human recombinant HDAC1; [1]) | HDAC6 selectivity (fold) (human recombinant HDAC6; HDAC6 over HDAC1) | IC50 (human recombinant HDAC6; [2]) | IC50 (human recombinant HDAC1; [3]) | HDAC6 selectivity (fold) (human recombinant HDAC6; HDAC1 IC50 / HDAC6 IC50) | IC50 (human recombinant HDAC6; [4]) | Compound |
| --- | --- | --- | --- | --- | --- | --- |
| > 50000 nM | 952 fold | 52.5 nM | – | – | – | CC1(C)CCN(Cc2ccc(-c3cn(Cc4ccc(-c5nnc(C(F)F)o5)cc4F)nn3)cn2)CC1 [Compound 17777, 2-(difluoromethyl)-5-(4-((4-(6-((4,4-dimethylpiperidin-1-yl)methyl)pyridin-3-yl)-1H-1,2,3-triazol-1-yl)methyl)-3-fluorophenyl)-1,3,4-oxadiazole] |
| > 50000 nM | 3649 fold | 13.7 nM | – | – | – | CN1CCN(c2cccc(-c3cn(Cc4ccc(-c5nnc(C(F)F)o5)cn4)nn3)c2F)CC1 [Compound 4569, 2-(difluoromethyl)-5-(6-((4-(2-fluoro-3-(4-methylpiperazin-1-yl)phenyl)-1H-1,2,3-triazol-1-yl)methyl)pyridin-3-yl)-1,3,4-oxadiazole] |
| – | – | – | > 50000 nM | 103 fold | 484 nM | FC(F)c1nnc(-c2ccc(Cn3cc(C4CCCN(C5COC5)C4)nn3)nc2)o1 (stereo not drawn) [Compound 4003] |
| > 50000 nM | 3164 fold | 15.8 nM | – | – | – | Fc1cc(-c2nnc(C(F)F)o2)ccc1Cn1cc(-c2ccc(CNC3CCCC3)cc2)nn1 [Compound 4609, N-(4-(1-(4-(5-(difluoromethyl)-1,3,4-oxadiazol-2-yl)-2-fluorobenzyl)-1H-1,2,3-triazol-4-yl)benzyl)cyclopentanamine] |
| > 50000 nM | 568 fold | 87.9 nM | – | – | – | CC1CCN(Cc2ccc(-c3cn(Cc4ccc(-c5nnc(C(F)F)o5)cc4F)nn3)s2)CC1 [Compound 17915] |
| > 50000 nM | 1146 fold | 43.6 nM | – | – | – | Fc1cc(-c2nnc(C(F)F)o2)ccc1Cn1cc(-c2ccc(CN3CCC3)c(Cl)c2)nn1 [Compound 18712] |
| – | – | – | > 50000 nM | 1043 fold | 47.9 nM | Fc1ccc(-c2cn(Cc3ccc(-c4nnc(C(F)F)o4)cn3)nn2)cc1F [Compound 3737, 2-(difluoromethyl)-5-(6-((4-(3,4-difluorophenyl)-1H-1,2,3-triazol-1-yl)methyl)pyridin-3-yl)-1,3,4-oxadiazole] |
| > 50000 nM | 1923 fold | 26 nM | – | – | – | CC(C)N1CCN(c2cccc(-c3cn(Cc4ccc(-c5nnc(C(F)F)o5)cc4F)nn3)c2F)CC1 [Compound 4578] |
| – | – | – | > 50000 nM | 315 fold | 159 nM | CN1CCN(c2cc(-c3cn(Cc4ccc(-c5nnc(C(F)F)o5)cc4)nn3)ccc2F)CC1 [Compound 4419, 2-(difluoromethyl)-5-(4-((4-(4-fluoro-3-(4-methylpiperazin-1-yl)phenyl)-1H-1,2,3-triazol-1-yl)methyl)phenyl)-1,3,4-oxadiazole] |
| > 50000 nM | 1326 fold | 37.7 nM | – | – | – | FC(F)c1nnc(-c2ccc(Cn3cc(-c4ccc5c(c4)CN(C4COC4)C5)nn3)nc2)o1 [Compound 4543, 2-(difluoromethyl)-5-(6-((4-(2-(oxetan-3-yl)isoindolin-5-yl)-1H-1,2,3-triazol-1-yl)methyl)pyridin-3-yl)-1,3,4-oxadiazole] |
| > 50000 nM | 1377 fold | 36.3 nM | – | – | – | Fc1cc(-c2nnc(C(F)F)o2)ccc1Cn1cc(-c2cccc(N3CCN(C4COC4)CC3)n2)nn1 [Compound 17365, 2-(difluoromethyl)-5-(3-fluoro-4-((4-(6-(4-(oxetan-3-yl)piperazin-1-yl)pyridin-2-yl)-1H-1,2,3-triazol-1-yl)methyl)phenyl)-1,3,4-oxadiazole] |
